Measured values reported in PMC7531004, “Discovery of gramicidin A analogues with altered activities by multidimensional screening of a one-bead-one-compound library” (Nature Communications, 2020).
“And” between values parts separate entries of the source, which are not always exact repeats. Equal values may be shown once. Read-outs that look alike come from different tables or passages of the source. Where a SMILES comes first, the peptide text is derived from it. [ ]: non-standard residue; d: D form. The star is where a group is joined. NHCH2CH2OH = OCCN*; For = O=C*

Experiments:
[1] = test system: Streptococcus pyogenes SSI-9; assay: Antibacterial activity assay of bead-derived peptides (three concentrations); type: cell-based; parameters: key: +++: inhibition by the 640-fold diluted peptide solution; ++: inhibition by the 160-fold diluted solution; +: inhibition by the 40-fold diluted solution; -: no inhibition; details: S. pyogenes
Method in brief: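 Library peptide stock applied undiluted, 4-fold and 16-fold diluted in DMSO to S. pyogenes SSI-9 (2 × 10^5 CFU) in cation-adjusted Mueller Hinton broth with 5% laked horse blood. After 18 h at 37 °C, growth judged by visible cell precipitation.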

[2] = test system: MSSA1 (methicillin-susceptible Staphylococcus aureus); type: cell-based
Procedure: Evaluation of antibacterial spectra of purified peptides. The MIC assay was performed according to the Clinical and Laboratory Standards Institute protocols. The antibacterial activities of the purified peptides A1, B01–B04, B11–B13, B21, and B22 were measured using the broth microdilution method. 6 Serial dilutions of the peptides were prepared in cation adjusted Mueller Hinton Broth. Each dilution (100 µL) was dispensed to each well of the round-bottom plate to obtain final concentrations ranging from 64 µg/mL to 0.00024 µg/mL. Bacteria were grown at 37 °C overnight on Tryptic Soy Broth or Mueller Hinton Broth agar plates.
The bacterial colonies were suspended in 0.9% saline to obtain OD 625 of 0.08–0.13 using a spectrophotometer UV-1280 (Shimadzu). The resultant suspension was diluted with cation adjusted Mueller Hinton Broth (1/20). The resultant mixture (10 .0 µL) was inoculated to each well of the plates (approximately 5 × 10^4 CFU/well), mixed, and incubated at 37 °C for 18–24 h. The MIC value was determined as the minimum concentration that inhibited growth of bacteria. For Streptococcus species, cation adjusted Mueller Hinton Broth supplemented with 5% laked horse blood was used. […]

[3] = Membrane disruption assay of purified peptides (carboxyfluorescein leakage); type: biochemical; parameters: key: % lysis; Triton X-100 = 100%, DMSO = 0%; details: three replicate lines
Procedure: Membrane disruption assay of purified peptides. 5(6)-Carboxyfluorescein (CF)-encapsulated large […]
through Nuclepore polycarbonate filters mounted in the mini-extruder apparatus. A solution of egg yolk phosphatidylcholine (EYPC, 22.0 mg, 28.9 µmol) in CHCl3 (225 µL) and egg yolk phosphatidylglycerol (1.2 0 […]
mM HEPES, 100 mM NaCl, 20 mM CF) by sonication. After five -times freeze-thaw cycles, the lipid […]
concentration of the resultant CF -encapsulated LUV suspension was deduced from the phosphatidylcholine concentration determined by using Phospholipid C -Test Wako. The lipid concentration of the LUV […]
as 5-fold serial dilution. The solution of peptide (2.0 µL) and the CF-encapsulated LUV suspension (200 […]
The resultant suspension was incubated at room temperature for 30 min. The fluorescence (Ex. 490 nm/Em. 517 nm) of each well was measured on Gemini EM microplate reader. Triton X-100/H2O (5/95, 3.0 µL), DMSO (2.0 µL), and the LUV suspension were mixed in each plate to determine 100% lysis. […]
was used to determine 0% lysis. The membrane disruption activities of tested peptides ( I) were normalized against 100% lysis by Triton X-100 (Imax) and 0% lysis by DMSO ( I0) according to Supplementary Equation 2 , where Ix is the fluorescence intensity.
The membrane disruption activities of the purified peptides were plotted as means of three replicates (Supplementary Figure 1).

[4] = H+/Na+ transport assay of purified peptides; details: for Supplementary Figure 5 dose-response value (H+/Na+ transport): three replicate lines
Procedure: First, we evaluated the ion channel function of 1 using liposomes. To mimic a negatively charged Gram-positive bacterial membrane, the liposomes were prepared as large unilamellar vesicles (LUVs) comprising a 19:1 mixture of egg yolk phosphatidylcholine (EYPC) and egg yolk phosphatidylglycerol (EYPG)[57]. Pyranine, a pH-dependent fluorescent dye[58], was encapsulated in the LUVs and a pH gradient was applied across the membrane. H^+/Na^+ transport induced by a peptide was monitored by changes in the fluorescence intensity of pyranine.

[5] = read-out: EC50, H+/Na+ transport assay, 1st experiment
[6] = read-out: EC50, H+/Na+ transport assay, 2nd experiment
[7] = read-out: EC50, H+/Na+ transport assay, 3rd experiment
[8] = read-out: H+/Na+ transport activity EC50, EYPC/EYPG (19:1) LUVs
[9] = read-out: H+/Na+ transport activity/EC50, mean ± SD of three independent experiments

Structure (SMILES)	antibacterial activity/MIC [2] [µg/mL]	Supplementary Figure 1 dose-response value ([3]; concentration 0.000512 nM)	Supplementary Figure 1 dose-response value ([3]; concentration 0.00256 nM)	Supplementary Figure 1 dose-response value ([3]; concentration 0.0128 nM)	Supplementary Figure 1 dose-response value ([3]; concentration 0.064 nM)	Supplementary Figure 1 dose-response value ([3]; concentration 0.32 nM)	Supplementary Figure 1 dose-response value ([3]; concentration 1.6 nM)	Supplementary Figure 1 dose-response value ([3]; concentration 8 nM)	Supplementary Figure 1 dose-response value ([3]; concentration 40 nM)	Supplementary Figure 1 dose-response value ([3]; concentration 200 nM)	Supplementary Figure 1 dose-response value ([3]; concentration 1000 nM)	Supplementary Figure 1 dose-response value ([3]; concentration 5000 nM)	Supplementary Figure 5 dose-response value (H+/Na+ transport) ([4]; concentration 0.000512 nM)	Supplementary Figure 5 dose-response value (H+/Na+ transport) ([4]; concentration 0.00256 nM)	Supplementary Figure 5 dose-response value (H+/Na+ transport) ([4]; concentration 0.0128 nM)	Supplementary Figure 5 dose-response value (H+/Na+ transport) ([4]; concentration 0.064 nM)	Supplementary Figure 5 dose-response value (H+/Na+ transport) ([4]; concentration 0.32 nM)	Supplementary Figure 5 dose-response value (H+/Na+ transport) ([4]; concentration 1.6 nM)	Supplementary Figure 5 dose-response value (H+/Na+ transport) ([4]; concentration 8 nM)	Supplementary Figure 5 dose-response value (H+/Na+ transport) ([4]; concentration 40 nM)	further results
CC(C)C[C@@H](NC(=O)[C@H](Cc1c[nH]c2ccccc12)NC(=O)[C@@H](CC(C)C)NC(=O)[C@H](Cc1c[nH]c2ccccc12)NC(=O)[C@@H](CC(C)C)NC(=O)[C@H](Cc1c[nH]c2ccccc12)NC(=O)[C@H](NC(=O)[C@@H](NC(=O)[C@H](NC(=O)[C@H](C)NC(=O)[C@H](NC(=O)[C@H](C)NC(=O)CNC(=O)[C@@H](NC=O)C(C)C)C(C)C)C(C)C)C(C)C)C(C)C)C(=O)N[C@@H](Cc1c[nH]c2ccccc12)C(=O)NCCO [A1] (For-VGA[dV]A[dV]V[dV]W[dL]W[dL]W[dL]W-NHCH2CH2OH)	8	15.596 and 11.1897 and 18.8476	19.0421 and 18.9023 and 11.8141	18.8248 and 18.451 and 13.318	5.787 and 7.036 and 10.8676	6.642 and 18.6722 and 17.2971	5.416 and 5.449 and 6.466	18.3076 and 19.5293 and 5.647	20.3219 and 7.57 and 17.0093	24.2624 and 22.7393 and 19.0922	20.1834 and 27.4358 and 26.1069	74.0004 and 66.4045 and 47.3037	1.8002 and 1.763 and 1.206	3.307 and 4.634 and 1.407	5.867 and 6.44 and 5.481	6.841 and 9.002 and 6.572	16.8499 and 16.683 and 16.1323	35.8143 and 34.663 and 30.2235	59.1193 and 56.2604 and 57.9939	69.1281 and 68.6879 and 67.3822	antibacterial activity in the library screening [1]: +++; Supplementary Figure 5 dose-response value (H+/Na+ transport) ([4]; concentration 200 nM): 71.9954 and 72.6939 and 69.0451; Supplementary Figure 5 dose-response value (H+/Na+ transport) ([4]; concentration 1000 nM): 75.1932 and 74.1998 and 72.8534; Supplementary Figure 5 dose-response value (H+/Na+ transport) ([4]; concentration 5000 nM): 74.4116 and 69.1356 and 72.7894; EC50 [4, 5]: 1.9 nM; EC50 [4, 6]: 3.5 nM; EC50 [4, 7]: 1.99 nM; EC50 [4, 8]: 2.5 nM; EC50 [4, 9]: 2.46 ± 0.9 nM
CC(C)C[C@@H](NC(=O)[C@H](C)NC(=O)CNC(=O)[C@@H](NC=O)C(C)C)C(=O)N[C@@H](C)C(=O)N[C@@H](C(=O)N[C@H](C(=O)N[C@@H](C(=O)N[C@@H](Cc1c[nH]c2ccccc12)C(=O)N[C@@H](C(=O)N[C@@H](Cc1c[nH]c2ccccc12)C(=O)N[C@H](CC(C)C)C(=O)N[C@@H](Cc1c[nH]c2ccccc12)C(=O)N[C@@H](C(=O)N[C@@H](Cc1c[nH]c2ccccc12)C(=O)NCCO)C(C)C)C(C)C)C(C)C)C(C)C)C(C)C [B04] (For-VGA[dL]A[dV]V[dV]W[dV]W[dL]W[dV]W-NHCH2CH2OH)	32	5.512 and 4.537 and 0.4455	-0.04863 and -3.2 and 2.187	9.24 and 8.431 and 0.7987	3.3 and 2.841 and 2.346	3.831 and -2.375 and 0.08227	3.92 and -4.965 and 7.615	4.496 and 6.302 and 12.8514	10.2052 and 8.412 and 22.8437	31.7359 and 28.6719 and 15.6803	31.9617 and 33.3362 and 31.6759	49.4317 and 48.1889 and 46.8231	-0.2346 and 0.9427 and 1.027	1.3317 and 0.8542 and 1.548	-1.2605 and 2.862 and -0.09432	5.945 and 3.111 and 2.028	10.5694 and 12.3828 and 8.56	26.4566 and 23.815 and 22.5252	54.4909 and 53.2036 and 54.0987	70.9935 and 73.4781 and 68.8062	Supplementary Figure 5 dose-response value (H+/Na+ transport) ([4]; concentration 200 nM): 73.8391 and 72.9169 and 76.5429; Supplementary Figure 5 dose-response value (H+/Na+ transport) ([4]; concentration 1000 nM): 75.0683 and 78.833 and 77.3632; Supplementary Figure 5 dose-response value (H+/Na+ transport) ([4]; concentration 5000 nM): 78.0479 and 76.1013 and 78.9016; EC50 [4, 5]: 3.43 nM; EC50 [4, 6]: 3.5 nM; EC50 [4, 7]: 4.18 nM; EC50 [4, 8]: 3.7 nM; EC50 [4, 9]: 3.71 ± 0.42 nM
CC(C)C[C@@H](NC(=O)[C@H](C)NC(=O)CNC(=O)[C@@H](NC=O)C(C)C)C(=O)N[C@@H](C)C(=O)N[C@H](CC(C)C)C(=O)N[C@H](C(=O)N[C@H](CC(C)C)C(=O)N[C@@H](Cc1c[nH]c2ccccc12)C(=O)N[C@H](CC(C)C)C(=O)N[C@@H](Cc1c[nH]c2ccccc12)C(=O)N[C@@H](C(=O)N[C@@H](Cc1c[nH]c2ccccc12)C(=O)N[C@@H](C(=O)N[C@@H](Cc1c[nH]c2ccccc12)C(=O)NCCO)C(C)C)[C@H](C)O)C(C)C [B11] (For-VGA[dL]A[dL]V[dL]W[dL]W[dT]W[dV]W-NHCH2CH2OH)	8	5.494 and 6.863 and 12.708	14.2851 and 9.552 and 1.714	7.111 and 13.4023 and 5.9017	7.045 and 5.618 and 12.7128	7.504 and 4.742 and -0.9072	6.643 and 8.722 and 7.953	9.977 and 11.641 and 10.0816	10.5587 and 19.8477 and 14.3879	16.8668 and 21.6675 and 22.4815	29.3702 and 19.1829 and 26.8244	51.942 and 51.7671 and 63.4556	2.871 and 2.386 and 5.02	3.181 and 2.224 and 1.333	4.586 and 1.99 and 1.993	7.716 and 4.162 and 7.014	12.4442 and 13.4783 and 13.1353	25.1993 and 24.5125 and 22.5261	38.4333 and 37.5732 and 33.164	66.9626 and 64.2822 and 61.6393	Supplementary Figure 5 dose-response value (H+/Na+ transport) ([4]; concentration 200 nM): 70.7655 and 66.8425 and 69.2783; Supplementary Figure 5 dose-response value (H+/Na+ transport) ([4]; concentration 1000 nM): 70.5972 and 73.9169 and 73.5278; Supplementary Figure 5 dose-response value (H+/Na+ transport) ([4]; concentration 5000 nM): 72.3937 and 72.1348 and 73.2071; EC50 [4, 5]: 6.44 nM; EC50 [4, 6]: 2.58 nM; EC50 [4, 7]: 7.92 nM; EC50 [4, 8]: 5.7 nM; EC50 [4, 9]: 5.65 ± 2.76 nM
